The target in the test is T1, HPK1 (Homo sapiens, UniProt Q92918).
T1 construct: purchased SignalChem M23-11G
T1 sequence (Q92918 1-346 limits assumed): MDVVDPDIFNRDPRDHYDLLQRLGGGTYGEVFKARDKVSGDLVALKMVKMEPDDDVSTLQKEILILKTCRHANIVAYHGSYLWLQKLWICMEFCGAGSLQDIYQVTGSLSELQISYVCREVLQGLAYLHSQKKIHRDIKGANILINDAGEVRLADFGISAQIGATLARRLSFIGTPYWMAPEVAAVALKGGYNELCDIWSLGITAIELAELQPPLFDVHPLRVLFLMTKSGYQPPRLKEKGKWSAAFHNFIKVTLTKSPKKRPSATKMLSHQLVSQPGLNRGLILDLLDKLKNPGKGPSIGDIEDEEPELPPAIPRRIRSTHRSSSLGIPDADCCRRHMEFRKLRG
Briefly: HPK1 Kinase Binding Assay. The following applies: LanthaScreen tracer 222, one hour incubation at 25 °C. The procedure: A stock solution of 1 mM test compound was prepared in DMSO. The compound plate was prepared by 3-fold and 11-point serial dilutions. 0.1 µL of the compound in DMSO was transferred from the compound plate to the white 384 well polystyrene plates. The assay buffer contained 50 mM HEPES, pH 7.5, 0.01% Tween-20, 5 mM MgCl2, 0.01% BSA, and 5 mM DTT. 5 µL of 4 nM active HPK1 (SignalChem M23-11G) prepared in the buffer was added to the plate. The enzyme concentration given was based on the given stock concentration reported by the vender. […] After one hour incubation at 25 °C, the plates were read on a PHERAstar FS plate reader (BMG Labtech). Ki values were determined.

This is an account of results in patent EP3755703B1, “N-(PHENYL)-2-(PHENYL)PYRIMIDINE-4-CARBOXAMIDE DERIVATIVES AND RELATED COMPOUNDS AS HPK1 INHIBITORS FOR TREATING CANCER” (Incyte Corporation, priority 2018, dated 2019).

Where only a bound is given, the exact number is not on record here.

Broadly, the Ki is a measure of affinity in units of concentration, obtained from inhibition or displacement.

Regarding `COc1ccc(F)c(F)c1-c1nccc(C(=O)Nc2cc(F)ccc2N2C[C@@H](N)C[C@H]2CO)n1` [Example 68, N-(2-((2S,4S)-4-Amino-2-(hydroxymethyl)pyrrolidin-1-yl)-5-fluorophenyl)-2-(2,3-difluoro-6-methoxyphenyl)pyrimidine-4-carboxamide], the Ki was less than 0.1 µM.

Take `[2H]C([2H])([2H])Oc1ccc(C)c(F)c1-c1nccc(C(=O)Nc2cc(F)ccc2N2C[C@@H](N)C[C@H]2CO)n1` [Example 69, N-(2-((2S,4S)-4-Amino-2-(hydroxymethyl)pyrrolidin-1-yl)-5-fluorophenyl)-2-(2-fluoro-6-(methoxy-d3)-3-methylphenyl)pyrimidine-4-carboxamide]: the Ki was less than 0.1 µM.

Turning to `COc1cc(C)cc(F)c1-c1nccc(C(=O)Nc2ccc(-c3cnccc3C#N)cc2N2C[C@@H](N)C[C@H]2CO)n1` [Example 70, N-(2-((2S,4S)-4-Amino-2-(hydroxymethyl)pyrrolidin-1-yl)-4-(4-cyanopyridin-3-yl)phenyl)-2-(2-fluoro-6-methoxy-4-methylphenyl)pyrimidine-4-carboxamide], the Ki is less than 0.1 µM.

As for `Cc1c(F)ccc(F)c1-c1nccc(C(=O)Nc2ccc(-c3cnccc3C#N)cc2N2C[C@@H](N)C[C@H]2CO)n1` [Example 71, N-(2-((2S,4S)-4-Amino-2-(hydroxymethyl)pyrrolidin-1-yl)-4-(4-cyanopyridin-3-yl)phenyl)-2-(3,6-difluoro-2-methylphenyl)pyrimidine-4-carboxamide], the Ki is less than 0.1 µM.

On to `COc1ccc(F)c(F)c1-c1nccc(C(=O)Nc2ccc(-c3cnccc3C#N)cc2N2C[C@@H](N)C[C@H]2CO)n1` [Example 72, N-(2-((2S,4S)-4-Amino-2-(hydroxymethyl)pyrrolidin-1-yl)-4-(4-cyanopyridin-3-yl)phenyl)-2-(2,3-difluoro-6-methoxyphenyl)pyrimidine-4-carboxamide], for which the Ki was less than 0.1 µM.

As to `COc1c(F)ccc(F)c1-c1nccc(C(=O)Nc2ccc(-c3cnccc3C#N)cc2N2C[C@@H](N)C[C@H]2CO)n1` [Example 73, N-(2-((2S,4S)-4-Amino-2-(hydroxymethyl)pyrrolidin-1-yl)-4-(4-cyanopyridin-3-yl)phenyl)-2-(3,6-difluoro-2-methoxyphenyl)pyrimidine-4-carboxamide], the Ki was less than 0.1 µM.

In turn, `[2H]C([2H])([2H])Oc1ccc(C#N)c(F)c1-c1nccc(C(=O)Nc2ccc(-c3cnccc3C#N)cc2N2C[C@@H](N)C[C@H]2CO)n1` [Example 74, N-(2-((2S,4S)-4-Amino-2-(hydroxymethyl)pyrrolidin-1-yl)-4-(4-cyanopyridin-3-yl)phenyl)-2-(3-cyano-2-fluoro-6-(methoxy-d3)phenyl)pyrimidine-4-carboxamide] gave a Ki of less than 0.1 µM.

The compound `[2H]C([2H])([2H])Oc1c(F)ccc(F)c1-c1nccc(C(=O)Nc2ccc(-c3cnccc3C#N)cc2N2C[C@@H](N)C[C@H]2CO)n1` [Example 75, N-(2-((2S,4S)-4-Amino-2-(hydroxymethyl)pyrrolidin-1-yl)-4-(4-cyanopyridin-3-yl)phenyl)-2-(3,6-difluoro-2-(methoxy-d3)phenyl)pyrimidine-4-carboxamide] had a Ki of less than 0.1 µM.

The compound `[2H]C([2H])([2H])Oc1ccc(F)c(F)c1-c1nccc(C(=O)Nc2ccc(-c3cnccc3C#N)cc2N2C[C@@H](N)C[C@H]2CO)n1` [Example 76, N-(2-((2S,4S)-4-Amino-2-(hydroxymethyl)pyrrolidin-1-yl)-4-(4-cyanopyridin-3-yl)phenyl)-2-(2,3-difluoro-6-(methoxy-d3)phenyl)pyrimidine-4-carboxamide] showed a Ki of less than 0.1 µM.

In turn, `COc1cccc(F)c1-c1nccc(C(=O)Nc2ccccc2C2CCNCC2)n1` [Example 78, 2-(2-Fluoro-6-methoxyphenyl)-N-(2-(piperidin-4-yl)phenyl)pyrimidine-4-carboxamide] displayed a Ki of 0.1 to 0.5 µM.

Consider `COc1cccc(F)c1-c1nccc(C(=O)Nc2ccccc2C2CCCC(N)C2)n1` (stereo not shown) [Example 80, N-(2-(3-Aminocyclohexyl)phenyl)-2-(2-fluoro-6-methoxyphenyl)pyrimidine-4-carboxamide], for which the Ki is less than 0.1 µM.

Consider `COc1cccc(F)c1-c1nccc(C(=O)Nc2ccccc2C2CCC(N)C2)n1` (stereo not shown) [Example 81, N-(2-(3-aminocyclopentyl)phenyl)-2-(2-fluoro-6-methoxyphenyl)pyrimidine-4-carboxamide], for which the Ki was less than 0.1 µM.

On to `COc1cccc(F)c1-c1nccc(C(=O)Nc2ccc(-c3c(C)nn(C)c3C)cc2[C@H]2CC[C@@H](N)CC2)n1` [Example 84, N-(2-((cis)-4-Aminocyclohexyl)-4-(1,3,5-trimethyl-1H-pyrazol-4-yl)phenyl)-2-(2-fluoro-6-methoxyphenyl)pyrimidine-4-carboxamide], for which the Ki is less than 0.1 µM.

On to `COc1cccc(F)c1-c1nccc(C(=O)Nc2ccc(S(C)(=O)=O)cc2N2C[C@@H](N)C[C@H]2CO)n1` [Example 85, N-(2-((2S,4S)-4-Amino-2-(hydroxymethyl)pyrrolidin-1-yl)-4-(methylsulfonyl)phenyl)-2-(2-fluoro-6-methoxyphenyl)pyrimidine-4-carboxamide], for which the Ki was less than 0.1 µM.

On to `COc1cccc(F)c1-c1nccc(C(=O)Nc2ccccc2N2C[C@@H](N)C[C@H]2CO)n1` [Example 86, N-(2-((2S,4S)-4-Amino-2-(hydroxymethyl)pyrrolidin-1-yl)phenyl)-2-(2-fluoro-6-methoxyphenyl)pyrimidine-4-carboxamide], for which the Ki is less than 0.1 µM.

`COc1cccc(F)c1-c1nccc(C(=O)Nc2cc(C)ccc2N2C[C@@H](N)C[C@H]2CO)n1` [Example 87, N-(2-((2S,4S)-4-Amino-2-(hydroxymethyl)pyrrolidin-1-yl)-5-methylphenyl)-2-(2-fluoro-6-methoxyphenyl)pyrimidine-4-carboxamide] gave a Ki of less than 0.1 µM.

For `COc1cccc(F)c1-c1nccc(C(=O)Nc2cc(F)ccc2N2C[C@@H](N(C)C)C[C@H]2CO)n1` [Example 88, N-(2-((2S,4S)-4-(Dimethylamino)-2-(hydroxymethyl)pyrrolidin-1-yl)-5-fluorophenyl)-2-(2-fluoro-6-methoxyphenyl)pyrimidine-4-carboxamide], the Ki was less than 0.1 µM.

`COc1cccc(F)c1-c1nccc(C(=O)Nc2cc(F)ccc2N2C[C@@H](NC(C)C)C[C@H]2CO)n1` [Example 89, N-(5-Fluoro-2-((2S,4S)-2-(hydroxymethyl)-4-(isopropylamino)pyrrolidin-1-yl)phenyl)-2-(2-fluoro-6-methoxyphenyl)pyrimidine-4-carboxamide] came in with a Ki of less than 0.1 µM.

For the compound `COc1cccc(F)c1-c1nccc(C(=O)Nc2ccc(C3CCOCC3)cc2N2C[C@@H](N)C[C@H]2CO)n1` [Example 90, N-(2-((2S,4S)-4-Amino-2-(hydroxymethyl)pyrrolidin-1-yl)-4-(tetrahydro-2H-pyran-4-yl)phenyl)-2-(2-fluoro-6-methoxyphenyl)pyrimidine-4-carboxamide], the Ki is less than 0.1 µM.

Compound `COc1cccc(F)c1-c1nccc(C(=O)Nc2ccc(Cl)cc2N2C[C@@H](N)C[C@H]2CO)n1` [Example 91, N-(2-((2S,4S)-4-Amino-2-(hydroxymethyl)pyrrolidin-1-yl)-4-chlorophenyl)-2-(2-fluoro-6-methoxyphenyl)pyrimidine-4-carboxamide] showed a Ki of less than 0.1 µM.

`COc1cccc(F)c1-c1nccc(C(=O)Nc2ccc(F)cc2N2C[C@@H](N)C[C@H]2CO)n1` [Example 92, N-(2-((2S,4S)-4-Amino-2-(hydroxymethyl)pyrrolidin-1-yl)-4-fluorophenyl)-2-(2-fluoro-6-methoxyphenyl)pyrimidine-4-carboxamide] registered a Ki of less than 0.1 µM.

On to `N#Cc1cnc(N2CCCC2)cc1-c1ccc(NC(=O)c2ccnc(-c3c(F)cccc3F)n2)c(N2C[C@@H](N)C[C@H]2CO)c1` [Example 93, N-(2-((2S,4S)-4-Amino-2-(hydroxymethyl)pyrrolidin-1-yl)-4-(5-cyano-2-(pyrrolidin-1-yl)pyridin-4-yl)phenyl)-2-(2,6-difluorophenyl)pyrimidine-4-carboxamide], for which the Ki was less than 0.1 µM.

For `N#CC1(c2ccc(NC(=O)c3ccnc(-c4c(F)cccc4F)n3)c(N3C[C@@H](N)C[C@H]3CO)c2)CC1` [Example 94, N-(2-((2S,4S)-4-Amino-2-(hydroxymethyl)pyrrolidin-1-yl)-4-(1-cyanocyclopropyl)phenyl)-2-(2,6-difluorophenyl)pyrimidine-4-carboxamide], the Ki was less than 0.1 µM.

As for `N#Cc1ccncc1-c1ccc(NC(=O)c2ccnc(-c3c(F)cccc3OC(F)F)n2)c(N2C[C@@H](N)C[C@H]2CO)c1` [Example 95, N-(2-((2S,4S)-4-Amino-2-(hydroxymethyl)pyrrolidin-1-yl)-4-(4-cyanopyridin-3-yl)phenyl)-2-(2-(difluoromethoxy)-6-fluorophenyl)pyrimidine-4-carboxamide], the Ki was less than 0.1 µM.

`N#Cc1ccncc1-c1ccc(NC(=O)c2ccnc(-c3c(F)cccc3C3CC3)n2)c(N2C[C@@H](N)C[C@H]2CO)c1` [Example 97, N-(2-((2S,4S)-4-Amino-2-(hydroxymethyl)pyrrolidin-1-yl)-4-(4-cyanopyridin-3-yl)phenyl)-2-(2-cyclopropyl-6-fluorophenyl)pyrimidine-4-carboxamide] displayed a Ki of less than 0.1 µM.
